Our source for the IC50 values is patent US10428083B2, “Heterocyclylmethyl-thienouracile as antagonists of the adenosine-A2B-receptor” (BAYER PHARMA AKTIENGESELLSCHAFT, priority 2015, dated 2019).

SMILES strings stand for the structures. pIC50: −log10 of the molar value.

This test addresses human adenosine A2b receptor (Homo sapiens (Human), UniProt P29275). Description: Cellular in vitro reporter gene test for A2b receptor activity (CHO-K1, CRE-luciferase, NECA stimulation). It counts as cell-based. The following applies: recombinant CHO-K1 cell line, CRE-luciferase reporter, antagonism of EC50 concentration of NECA; in some cases means of several determinations, rounded to two significant figures; read-out: A2b receptor IC50. The method in brief:
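CHO-K1 cells with CRE-driven luciferase; antagonists co-incubated with NECA at its EC50, determined in a pre-experiment on each test day. Luciferase read by luminescence 3 h after NECA addition.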

For orientation: pIC50 means the IC50 on a negative log10 scale, so that one unit is a factor of ten.

Chain of human adenosine A2b receptor (P29275 whole entry): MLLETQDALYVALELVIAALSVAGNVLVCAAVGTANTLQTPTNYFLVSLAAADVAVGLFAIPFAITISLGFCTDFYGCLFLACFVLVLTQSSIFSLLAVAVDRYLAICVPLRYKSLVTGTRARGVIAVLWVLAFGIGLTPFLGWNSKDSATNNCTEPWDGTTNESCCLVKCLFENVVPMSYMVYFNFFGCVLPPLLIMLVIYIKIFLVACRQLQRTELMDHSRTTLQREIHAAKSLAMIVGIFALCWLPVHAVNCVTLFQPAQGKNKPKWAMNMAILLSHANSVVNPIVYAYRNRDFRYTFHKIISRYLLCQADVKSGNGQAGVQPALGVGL

As for `Cc1c(CN2CCNC2=NC#N)sc2c1c(=O)n(CC(F)(F)F)c(=O)n2CCC(F)(F)F` [Example 358, [1-{[5-Methyl-2,4-dioxo-3-(2,2,2-trifluoroethyl)-1-(3,3,3-trifluoropropyl)-1,2,3,4-tetrahydrothieno[2,3-d]pyrimidin-6-yl]methyl}imidazolidin-2-ylidene]cyanamide], the pIC50 was 7.92. As for `Cc1c(CN2CCNC2=NC#N)sc2c1c(=O)n(CC(F)(F)F)c(=O)n2CC1CCO1` (stereo not drawn) [Example 359, [1-{[5-Methyl-1-(oxetan-2-ylmethyl)-2,4-dioxo-3-(2,2,2-trifluoroethyl)-1,2,3,4-tetrahydrothieno[2,3-d]pyrimidin-6-yl]methyl}imidazolidin-2-ylidene]cyanamide], the negative-log IC50 (pIC50) was 7.43. The same measure for `COCCn1c(=O)c2c(C)c(CN3CCNC3=NC#N)sc2n(CCC(F)(F)F)c1=O` [Example 362, [1-{[3-(2-Methoxyethyl)-5-methyl-2,4-dioxo-1-(3,3,3-trifluoropropyl)-1,2,3,4-tetrahydrothieno[2,3-d]pyrimidin-6-yl]methyl}imidazolidin-2-ylidene]cyanamide]: 8.03; for `COCCn1c(=O)c2c(C)c(CN3CCNC3=NC#N)sc2n(CCOC)c1=O` [Example 363, [1-{[1,3-Bis(2-methoxyethyl)-5-methyl-2,4-dioxo-1,2,3,4-tetrahydrothieno[2,3-d]pyrimidin-6-yl]methyl}imidazolidin-2-ylidene]cyanamide]: 7.72; for `CCn1c(=O)c2c(C)c(CN3CCNC3=NC(=O)OC)sc2n(CCC(F)(F)F)c1=O` [Example 370, Methyl [1-{[3-ethyl-5-methyl-2,4-dioxo-1-(3,3,3-trifluoropropyl)-1,2,3,4-tetrahydrothieno[2,3-d]pyrimidin-6-yl]methyl}imidazolidin-2-ylidene]carbamate]: 8.70. In the case of `COC(=O)N=C1NCCN1Cc1sc2c(c1C)c(=O)n(C(C)C)c(=O)n2CCC(F)(F)F` [Example 377, Methyl [1-{[3-isopropyl-5-methyl-2,4-dioxo-1-(3,3,3-trifluoropropyl)-1,2,3,4-tetrahydrothieno[2,3-d]pyrimidin-6-yl]methyl}imidazolidin-2-ylidene]carbamate], the pIC50 is 8.47. For `COCCn1c(=O)n(C(C)C)c(=O)c2c(C)c(CN3CCNC3=NC(=O)OC)sc21` [Example 378, Methyl [1-{[3-isopropyl-1-(2-methoxyethyl)-5-methyl-2,4-dioxo-1,2,3,4-tetrahydrothieno[2,3-d]pyrimidin-6-yl]methyl}imidazolidin-2-ylidene]carbamate], the pIC50 was 8.51. With `COC(=O)N=C1NCCN1Cc1sc2c(c1C)c(=O)n(CC(F)(F)F)c(=O)n2CCC(F)(F)F` [Example 381, Methyl [1-{[5-methyl-2,4-dioxo-3-(2,2,2-trifluoroethyl)-1-(3,3,3-trifluoropropyl)-1,2,3,4-tetrahydrothieno[2,3-d]pyrimidin-6-yl]methyl}imidazolidin-2-ylidene]carbamate] the figure was 8.39.

With `COCCn1c(=O)n(CC(F)(F)F)c(=O)c2c(C)c(CN3CCNC3=NC(=O)OC)sc21` [Example 382, Methyl [1-{[1-(2-methoxyethyl)-5-methyl-2,4-dioxo-3-(2,2,2-trifluoroethyl)-1,2,3,4-tetrahydrothieno[2,3-d]pyrimidin-6-yl]methyl}imidazolidin-2-ylidene]carbamate], the pIC50 is 8.17. The same measure for `COCCn1c(=O)c2c(C)c(CN3CCNC3=NC(=O)OC)sc2n(CCC(F)(F)F)c1=O` [Example 385, Methyl [1-{[3-(2-methoxyethyl)-5-methyl-2,4-dioxo-1-(3,3,3-trifluoropropyl)-1,2,3,4-tetrahydrothieno[2,3-d]pyrimidin-6-yl]methyl}imidazolidin-2-ylidene]carbamate]: 8.33; for `COCCn1c(=O)c2c(C)c(CN3CCNC3=NC(=O)OC)sc2n(CCOC)c1=O` [Example 386, Methyl [1-{[1,3-bis(2-methoxyethyl)-5-methyl-2,4-dioxo-1,2,3,4-tetrahydrothieno[2,3-d]pyrimidin-6-yl]methyl}imidazolidin-2-ylidene]carbamate]: 7.80.

For the compound `CCn1c(=O)c2c(C)c(CN3CCNC(=O)C3=O)sc2n(CF)c1=O` [Example 393, 6-[(2,3-Dioxopiperazin-1-yl)methyl]-3-ethyl-1-(fluoromethyl)-5-methylthieno[2,3-d]pyrimidine-2,4(1H,3H)-dione], the negative-log IC50 (pIC50) is 7.35. As to `CCn1c(=O)c2c(C)c(CN3CCNC(=O)C3=O)sc2n(CCC(F)(F)F)c1=O` [Example 394, 6-[(2,3-Dioxopiperazin-1-yl)methyl]-3-ethyl-5-methyl-1-(3,3,3-trifluoropropyl)thieno[2,3-d]pyrimidine-2,4(1H,3H)-dione], the pIC50 is 8.49. The same measure for `CCn1c(=O)c2c(C)c(CN3CCNC(=O)C3=O)sc2n(CCOC2CCCC2)c1=O` [Example 395, 1-[2-(Cyclopentyloxy)ethyl]-6-[(2,3-dioxopiperazin-1-yl)methyl]-3-ethyl-5-methylthieno[2,3-d]pyrimidine-2,4(1H,3H)-dione]: 7.03; for `CCn1c(=O)c2c(C)c(CN3CCNC(=O)C3=O)sc2n(CCCOC)c1=O` [Example 396, 6-[(2,3-Dioxopiperazin-1-yl)methyl]-3-ethyl-1-(3-methoxypropyl)-5-methylthieno[2,3-d]pyrimidine-2,4(1H,3H)-dione]: 7.03. The same measure for `CCOCCn1c(=O)c2c(C)c(CN3CCNC(=O)C3=O)sc2n(CCC(F)(F)F)c1=O` [Example 403, 6-[(2,3-Dioxopiperazin-1-yl)methyl]-3-(2-ethoxyethyl)-5-methyl-1-(3,3,3-trifluoropropyl)thieno[2,3-d]pyrimidine-2,4(1H,3H)-dione]: 7.46.

Turning to `CCOCCn1c(=O)c2c(C)c(CN3CCNC(=O)C3=O)sc2n(CCOC)c1=O` [Example 404, 6-[(2,3-Dioxopiperazin-1-yl)methyl]-3-(2-ethoxyethyl)-1-(2-methoxyethyl)-5-methylthieno[2,3-d]pyrimidine-2,4(1H,3H)-dione], the pIC50 is 6.92. The same measure for `CCOCCn1c(=O)c2c(C)c(CN3CCNC3=S)sc2n(CCCF)c1=O` [Example 405, 3-(2-Ethoxyethyl)-1-(3-fluoropropyl)-5-methyl-6-[(2-thioxoimidazolidin-1-yl)methyl]thieno[2,3-d]pyrimidine-2,4(1H,3H)-dione]: 7.52; for `Cc1c(CN2CCNC2=O)sc2c1c(=O)n(C(C)C(F)(F)F)c(=O)n2CCC(F)(F)F` (stereo not drawn) [Example 409, 5-Methyl-6-[(2-oxoimidazolidin-1-yl)methyl]-3-(t1,1,1-trifluoropropan-2-yl)-1-(3,3,3-trifluoropropyl)thieno[2,3-d]pyrimidine-2,4(1H,3H)-dione]: 7.85; for `CCOCCn1c(=O)c2c(C)c(CN3CCNC3=O)sc2n(CCCF)c1=O` [Example 411, 3-(2-Ethoxyethyl)-1-(3-fluoropropyl)-5-methyl-6-[(2-oxoimidazolidin-1-yl)methyl]thieno[2,3-d]pyrimidine-2,4(1H,3H)-dione]: 7.28. With `[2H]C([2H])(c1sc2c(c1C)c(=O)n(CC)c(=O)n2CCOC)N1CCNC1=O` [Example 415, 3-Ethyl-1-(2-methoxyethyl)-5-methyl-6-[(2-oxoimidazolidin-1-yl)(dideutero)methyl]thieno[2,3-d]pyrimidine-2,4(1H,3H)-dione], the pIC50 is 8.05.
